Reference: patent US20240307310A1, “STABILIZED SOLID ORAL PHARMACEUTICAL COMPOSITION OF VARENICLINE” (LUPIN LIMITED, priority 2021, published 2024)

Legend:
[1] = Regulatory acceptable intake (AI) limits for nitrosamine impurities; design: species or system human; settings: determined in view of the EMA limit
Experimental: FDA recommends the following acceptable intake (Al) limits fir the nitrosamine impurities a s given in the below table:
The conversion of Al limit into ppm varies by product and is calculated based on a drug's maximum daily dose (MDD) as reflected in the drug label (ppm=Al (ng)/MDD(mg)).
These limits are applicable only if a drug product contains a single nitrosamine.
Apart from NDMA there is another nitrosamine impurity, N-nitroso-varenicline which is usually found in APIs as well as finished product of varenicline. As per the recent update, USFDA has provided acceptable intake limit of N-nitroso-varenicline (VC09) from 37 ng/day to 185 ng/day, in finished product of varenicline.
Additionally, European Medicines Agency (EMA) has also provided the daily acceptable intake limit for N-nitroso-varenicline impurity as 18 ng/day. In view of the above limit minimum daily intake limit for VC09 was determined as 9 ppm.

[2] = cited from earlier work; for AI Limit: FDA recommended acceptable intake limit in drug products
[3] = Analysis of nitrosamine impurities (VC09, NDEA) in drug substance, blends and tablets; format: physicochemical; settings: Table 2

Row | Molecule | AI Limit [2] [ng/day] | also measured
1 | O=NN1CC2CC(C1)c1cc3nccnc3cc12 [N-nitroso-varenicline] | – | minimum daily intake limit [1]: 9 ppm; daily acceptable intake limit ([2]; European Medicines Agency (EMA)): 18 ng/day
2 | CCN(CC)N=O [NDEA, N-nitrosodiethylamine] | 26.5 | –
3 | CC(C)N(N=O)C(C)C [NDIPA, N-nitrosodiisopropylamine] | 26.5 | –
4 | CN(C)N=O [NDMA, N-nitrosodimethylamine] | 96 | –
5 | CCN(N=O)C(C)C [NIPEA, N-nitrosoisopropylethyl amine] | 26.5 | –
6 | CN(CCCC(=O)O)N=O [NMBA, N-nitroso-N-methyl-4-aminobutanoic acid] | 96 | –
7 | Varenicline Tartrate [Drug Substance] | – | Nitrosamines Results in ppm, VC09 ([3]; 40/75, 7 days, open): 0.20 ppm; Nitrosamines Results in ppm, VC09 ([3]; 60° C, 7 days, open): 0.27 ppm; Nitrosamines Results in ppm, VC09 ([3]; Initial (Chantix tablets: condition not given)): 0.23 ppm
